Laboratory results: patent EP4567040A1, “CRYSTAL FORM OF FUSED TRICYCLIC DERIVATIVE AND PREPARATION METHOD” (Jiangsu Hengrui Pharmaceuticals Co., Ltd., priority 2022, dated 2024)
≈ marks a conversion by molar mass, not a printed value.

Key:
CDK9/CyclinT1 = molecular target: T1, CDK9/CyclinT1 (Homo sapiens, UniProt P50750); assay: Kinase activity assay, ADP-Glo (CDK9/CyclinT1); format: biochemical; conditions: Table 18; read-out: CDK9/T1 IC50
T1 construct: purchased Wuxi Biortus BP480/792/691
Protocol: The starting concentration for the in vitro CDK (CDK2 and CDK9) kinase activity assay was 1 µM and was 3-fold diluted to a total of 10 concentrations, and each concentration was tested in duplicate. The compound PHA-793887 was used as a control compound.
A 1× kinase reaction buffer (40 mM Tris-HCl, pH 7.4, 20 mM […], 0.1 mg/mL BSA, 50 µM DTT), 1 volume of 5× kinase reaction buffer, and 4 volumes of water were prepared, and DTT (final concentration: 50 µM) was added. 50 nL of diluted compound working solution (final concentration of DMSO: 1%) was transferred to each well of a reaction plate (784075, Greiner) using Echo655. The reaction plate was sealed with a plate sealing film and centrifuged at 1000 g for 1 min. 2× enzyme (0.3 ng/µL CDK2/CyclinE1 or CDK9/CyclinT1) was prepared using the 1× kinase reaction buffer. 2.5 µL of the above kinase solution was added to each well. The reaction plate was sealed with a plate sealing film, centrifuged at 1000 g for 1 min, and left to stand at room temperature for 10 min. A mixture of 2× kinase substrate and ATP was prepared using the 1× kinase reaction buffer. 2× CDK2/CylinE1 kinase substrate was 0.4 mg/mL Histone H1 and 30 µM ATP. 2.5 µL of the mixture of 2× Histone H1 and ATP was added to the reaction plate. The plate was centrifuged at 1000 g for 30 s, and the reaction was started. […] The luminescence signals were obtained using Envision 2104. […]

CYP1A2 = molecular target: T2, CYP1A2 (Homo sapiens, UniProt P05177); assay: biochemical
T2 sequence (P05177 1-516): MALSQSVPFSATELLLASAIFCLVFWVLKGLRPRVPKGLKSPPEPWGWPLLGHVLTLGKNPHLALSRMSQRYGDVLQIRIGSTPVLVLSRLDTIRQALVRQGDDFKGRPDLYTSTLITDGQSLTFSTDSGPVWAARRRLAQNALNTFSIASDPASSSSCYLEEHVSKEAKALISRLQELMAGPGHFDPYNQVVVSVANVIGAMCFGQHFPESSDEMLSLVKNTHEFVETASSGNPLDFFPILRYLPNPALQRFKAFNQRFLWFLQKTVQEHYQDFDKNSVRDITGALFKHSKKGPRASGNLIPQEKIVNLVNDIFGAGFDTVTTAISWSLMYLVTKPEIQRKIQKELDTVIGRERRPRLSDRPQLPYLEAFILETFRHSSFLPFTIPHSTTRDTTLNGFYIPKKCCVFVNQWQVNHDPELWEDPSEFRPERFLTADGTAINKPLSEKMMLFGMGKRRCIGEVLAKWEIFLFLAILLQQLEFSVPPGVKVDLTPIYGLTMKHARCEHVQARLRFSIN
Protocol: (§1) The effects of different concentrations of the test compounds on the metabolic reactions of phenacetin (CYP1A2), diclofenac sodium (CYP2C9), S-mephenytoin (CYP2C19), bufuralol hydrochloride (CYP2D6), and midazolam (CYP3A4/5) were assessed by liquid chromatography-tandem mass spectrometry (LC/MS/MS).
(§2) Then, 200 µL of an acetonitrile solution containing 3% formic acid and 40 nM internal standard verapamil was added, and the mixture was centrifuged at 4000 rpm for 50 min. The mixture was cooled on ice for 20 min and centrifuged at 4000 rpm for 20 min to precipitate protein. 200 µL of the supernatant was taken for LC/MS/MS analysis.
(§3) The peak area was calculated based on the chromatogram. The residual activity proportion (%) was calculated using the following formula: peak area ratio = peak area of metabolite / peak area of internal standard [formula]
(§4) The half maximal inhibitory concentrations (IC50) against CYP were calculated using Excel XLfit 5.3.1.3.

CYP3A4 = CYP3A4 (Homo sapiens, UniProt P08684); assay: CYP inhibition assay in pooled human liver microsomes (CYP3A4, midazolam); format: in vitro ADME; conditions: pH 7.4, probe midazolam (3 µM), 37 °C, read-out: CYP 3A4 half maximal inhibitory concentration (IC50)
Chain of CYP3A4 (P08684 2-503): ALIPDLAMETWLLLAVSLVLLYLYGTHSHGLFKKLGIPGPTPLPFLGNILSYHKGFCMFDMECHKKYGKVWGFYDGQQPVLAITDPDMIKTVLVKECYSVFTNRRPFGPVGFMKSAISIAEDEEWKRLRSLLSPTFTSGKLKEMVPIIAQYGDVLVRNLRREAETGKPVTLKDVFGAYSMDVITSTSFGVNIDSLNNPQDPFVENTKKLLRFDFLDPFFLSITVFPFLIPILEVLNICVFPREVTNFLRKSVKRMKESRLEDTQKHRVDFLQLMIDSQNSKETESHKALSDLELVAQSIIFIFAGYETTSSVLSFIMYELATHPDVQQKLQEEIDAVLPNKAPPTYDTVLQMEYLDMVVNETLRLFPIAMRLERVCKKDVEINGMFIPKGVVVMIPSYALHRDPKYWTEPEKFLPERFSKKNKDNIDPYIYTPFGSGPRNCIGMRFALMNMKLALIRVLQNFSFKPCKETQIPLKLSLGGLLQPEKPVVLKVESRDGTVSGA

CYP2C19 = CYP2C19 (Homo sapiens, UniProt P33261); assay: biochemical
Chain of CYP2C19 (P33261 whole entry): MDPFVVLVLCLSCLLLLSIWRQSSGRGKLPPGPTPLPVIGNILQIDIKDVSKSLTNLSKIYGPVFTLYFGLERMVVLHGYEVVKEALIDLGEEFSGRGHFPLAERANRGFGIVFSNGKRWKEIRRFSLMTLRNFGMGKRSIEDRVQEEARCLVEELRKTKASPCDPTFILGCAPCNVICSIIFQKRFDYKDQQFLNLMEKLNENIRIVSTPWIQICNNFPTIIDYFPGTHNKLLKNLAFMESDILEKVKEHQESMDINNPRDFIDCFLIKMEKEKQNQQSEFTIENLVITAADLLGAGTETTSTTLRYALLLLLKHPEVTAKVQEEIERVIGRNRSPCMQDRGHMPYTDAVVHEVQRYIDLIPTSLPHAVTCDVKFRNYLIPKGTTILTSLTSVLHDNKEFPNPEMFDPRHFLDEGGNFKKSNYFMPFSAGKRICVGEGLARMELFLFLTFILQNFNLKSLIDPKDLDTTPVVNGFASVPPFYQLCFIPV
Protocol: as §1, §2, §3, §4

[1] = Thermodynamic solubility testing in pH 7.4 phosphate buffer; format: physicochemical; conditions: sodium phosphate buffer, aqueous buffer, thermodynamic from solid, 25 °C
Protocol: The thermodynamic solubility of the compounds in a pH 7.4 phosphate buffer was determined. Both the sample supernatant and the standard of a known concentration were tested by LC/MS/MS.
15.6 g of NaH2PO4·2H2O was weighed out, placed into a 1 L glass flask, and dissolved in 1 L of deionized water. The pH of the solution was approximately 4.7, and then the pH was adjusted to 7.4 with 10 M NaOH.
1 mg of each compound powder was accurately weighed out and placed in a glass tube. The pH 7.4 sodium phosphate buffer was added to the glass tube, with 1 mL of the buffer added for each milligram of the compound powder. A stirring bar was added to each glass tube, and the glass tube was closed with a cap. […] The observations in each glass tube were recorded. […] The recorded observations and dilution factors
1 mg of each compound powder was accurately weighed out and added to a glass tube, and DMSO was added to each glass tube, with 1 mL of DMSO added for each milligram of the compound powder. […] Samples were analyzed by LC/MS/MS. […]
All calculations were performed using Microsoft Excel. Samples were analyzed by LC/MS/MS and quantified based on the standard of a known concentration. The solubility of the test compounds was calculated using the following formula: [Sample] = Area Ratio sample × DF sample × [STD] / Area Ratio STD DF: dilution factor. […]

T1 sequence (P50750 whole entry, species assumed): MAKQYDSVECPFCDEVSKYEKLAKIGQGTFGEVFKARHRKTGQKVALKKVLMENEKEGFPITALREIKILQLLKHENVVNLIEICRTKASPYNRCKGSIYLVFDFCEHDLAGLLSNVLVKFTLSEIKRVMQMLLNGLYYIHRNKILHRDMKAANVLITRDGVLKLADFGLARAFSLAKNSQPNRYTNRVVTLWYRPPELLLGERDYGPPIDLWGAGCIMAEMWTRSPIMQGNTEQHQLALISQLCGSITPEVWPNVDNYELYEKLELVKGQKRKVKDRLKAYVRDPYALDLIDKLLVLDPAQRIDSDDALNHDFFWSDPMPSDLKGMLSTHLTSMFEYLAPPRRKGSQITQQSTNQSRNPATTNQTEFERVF
T1 sequence (O60563 whole entry partner, species assumed): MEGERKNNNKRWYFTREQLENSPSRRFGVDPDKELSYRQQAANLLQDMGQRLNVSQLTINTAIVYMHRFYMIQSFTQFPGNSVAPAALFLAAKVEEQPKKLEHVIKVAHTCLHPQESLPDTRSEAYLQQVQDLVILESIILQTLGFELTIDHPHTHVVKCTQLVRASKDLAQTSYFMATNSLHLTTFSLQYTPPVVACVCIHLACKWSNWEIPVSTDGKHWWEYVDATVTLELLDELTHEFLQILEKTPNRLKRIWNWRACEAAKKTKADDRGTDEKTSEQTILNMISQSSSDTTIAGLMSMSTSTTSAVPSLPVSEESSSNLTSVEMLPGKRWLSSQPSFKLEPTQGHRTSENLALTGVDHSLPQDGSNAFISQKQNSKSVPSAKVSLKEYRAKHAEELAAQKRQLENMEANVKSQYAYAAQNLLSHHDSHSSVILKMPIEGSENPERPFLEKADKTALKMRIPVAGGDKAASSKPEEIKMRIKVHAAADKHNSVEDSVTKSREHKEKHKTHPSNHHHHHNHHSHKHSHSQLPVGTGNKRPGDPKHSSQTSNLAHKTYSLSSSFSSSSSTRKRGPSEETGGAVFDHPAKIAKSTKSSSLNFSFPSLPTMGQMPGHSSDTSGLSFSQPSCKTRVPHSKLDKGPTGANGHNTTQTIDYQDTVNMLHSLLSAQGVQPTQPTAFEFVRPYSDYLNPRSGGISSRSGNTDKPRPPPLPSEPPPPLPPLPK

IC50 (CDK9/CyclinT1) [µM]	IC50 (CYP1A2) [µM]	IC50 at 5 min (CYP3A4) [µM]	IC50 (CYP2C19) [µM]	solubility at 24 h [1] [µM]	Structure (SMILES)
> 1	> 30	> 30	> 30	2200 (≈ 1050 µg/mL)	C[C@H]1COc2c(-c3nc(N[C@@H]4CCOC[C@H]4O)ncc3Cl)cc(F)c3nc(C(C)(C)O)n1c23 (single isomer, unassigned) [Isomer 1 with a retention time of 2.078 min]
> 1	> 30	> 30	> 30	2130 (≈ 1020 µg/mL)	C[C@@H]1COc2c(-c3nc(N[C@@H]4CCOC[C@H]4O)ncc3Cl)cc(F)c3nc(C(C)(C)O)n1c23 (single isomer, unassigned) [Isomer 2 with a retention time of 1.887 min]
